Results: patent publication US8652846B2, “Medium derived from stem cells as a pharmaceutical composition” (Omnicyte Limited, priority 2008, dated 2014)

Key:
[1] = test system: A549 lung cancer cell line; assay: Apoptosis of A549 cells with OmniCytes in Transwell assay (no cell contact), FACS Annexin V/7-AAD; format: cell-based, human; conditions: A549, control group: staurosporine alone, Transwell with membrane
Description: (§1) Human non-small-cell lung cancer line A549 was obtained from American Type Culture Collection (catalogue number CCL-185, Rockville, Md., USA) and grown in Ham's F 12-K medium supplemented with 10% fetal bovine serum and 1% penicillin/streptomycin in a 37° C. humidified incubator with 5% CO2.
(§2) 3×10^5 cancer cells were plated into the bottom of 24 mm Transwell 6 well plates with or without […] pore polycarbonate membrane insert (Corning Life Sciences, USA) with 2 mL of the appropriate cell culture medium. […]
(§3) To determine effect of OmniCytes on apoptosis, 3×10^5 OmniCytes were added 24 hours after the onset of apoptosis induction either to the top of the Transwell insert with 1 ml α-MEM (Gibco, UK) supplemented with 30% FBS (Gibco, UK) and 10% GM-MIX (for no contact conditions) or directly into the same well as the cells (for contact conditions). […] After 24 or 48 hours the inserts were removed and the cancer cells analysed for apoptosis and Bcl-2, Bcl-xL and Bax expression.
(§4) Apoptosis was analysed using the method of staining with fluorescein isothiocyanate (FITC)-Annexin V and 7-AAD-FITC previously described by Ikewaki et al. (2007). […] FITC-Annexin V staining was measured in FL1-H and FITC-7-AAD staining in FL3-H. […]

[2] = test system: A549 lung cancer cell line; assay: Apoptosis of A549 cells with OmniCytes in Transwell assay (no cell contact), DAPI nuclear staining, immuno-fluorescent microscopy; format: cell-based, human; conditions: A549, control group: staurosporine alone
Description: 3×10^5 cancer cells were plated into the bottom of 24 mm Transwell 6 well plates with or without […] pore polycarbonate membrane insert (Corning Life Sciences, USA) with 2 mL of the appropriate cell culture medium. Transwell plates with a polycarbonate membrane insert allow the exchange of soluble factors but prevent cell-cell contact, whereas Transwell plates without the membrane allow cell to cell contact. After 24 hours apoptosis was induced in cancer cells according to the designated protocol. Cells were incubated at 37° C. in 5% CO2/95% air. […]
as §3
10^5 cells were fixed using 4% paraformaldehyde (PFA) for 15 minutes at room temperature and washed 3 times with PBS (Gibco, UK). […] Cells were visualised on a Zeiss fluorescent microscope and analysed using the Metamorph programme. […]
For each sample, a minimum of 5 random fields were assessed and at least 250 cells were counted. […]

A549 lung cancer cells = assay: TNF-alpha blocking antibody study: A549 cells with staurosporine and OmniCytes without direct cell contact; format: cell-based, human; conditions: A549, control: staurosporine, OmniCyte-free
Description: The effect of TNF-alpha blocking antibodies was tested. A549 lung cancer cells were exposed to staurosporine and OmniCytes were added without direct cell contact. The control was OmniCyte-free. TNF-alpha blocking antibodies (Abeam™, Cambridge, UK) at two different concentrations (5 or 10 μg/mL) were added.

[3] = test system: A549 lung cancer cell line; assay: Apoptosis of A549 cells co-cultured with OmniCytes (direct cell contact), FACS Annexin V/7-AAD; format: cell-based, human; conditions: A549, control group: staurosporine alone, plate without membrane
Description: as §1, §2, §3, §4

Rat liver cells [4] = assay: Bilirubin levels of liver cells exposed to thioacetamide, OmniCytes without cell contact; format: cell-based; conditions: liver cells exposed to TAA only
Description: (§5) Rat liver cells were exposed to the hepatotoxin thioacetamide (TAA), which induces liver damage such as cirrhosis and fibrosis. The control was only exposed to TAA, whereas the experimental group was also exposed to OmniCytes without cell contact. Cell viability (expressed as mitochondrial dehydrogenase activity) was assessed.
Liver function was also assayed by measuring bilirubin levels. Aberrantly high levels of bilirubin are typically indicative of a liver disorder or malfunction.

Rat liver cells [5] = assay: Viability of liver cells exposed to thioacetamide (mitochondrial dehydrogenase activity), OmniCytes without cell contact; format: cell-based; conditions: rat liver cells exposed to TAA only
Description: as §5

| SMILES | apoptosis (Annexin V positive cells) [1] | apoptosis by nuclear staining (DAPI) [2] | apoptosis (A549 lung cancer cells) | mean of apoptosis (Annexin V positive cells) [3] | bilirubin levels (Rat liver cells [4]) | cell viability (mitochondrial dehydrogenase activity) (Rat liver cells [5]) |
| --- | --- | --- | --- | --- | --- | --- |
| CN[C@@H]1C[C@H]2O[C@@](C)([C@@H]1OC)n1c3ccccc3c3c4c(c5c6ccccc6n2c5c31)C(=O)NC4 [staurosporine] | 26.85%±2.15 | 18.32%±1.81 | 22.13%±0.74 | 22.77%±4.87 | – | – |
| CC(=N)S [TAA, thioacetamide] | – | – | – | – | caused bilirubin levels to rise | significantly decreased cell viability |
